Results: US9453062B2, “Glucose dependent insulinotropic polypeptide analogs, pharmaceutical compositions and use thereof” (Beijing Hanmi Pharmaceutical Co., Ltd., priority 2011, dated 2016)
*1 amine or outer side, *2 acyl side, *3 side chain or, on linkers, in order; H or OH if unused. Where a SMILES comes first, the peptide text is derived from it. Bridges are numbered along the chain shown (N, C = ends). Side-chain parts run from the residue outwards. [ ]: non-standard residue; d: D form. The star is where a group is joined. γGlu = O=C(O)[C@H](CCC(=O)[*:2])N[*:1]; Palmitoyl = CCCCCCCCCCCCCCCC(=O)*; Aib = CC(C)(N)C(=O)O

How the values were obtained:
[1] = molecular target: T1, hGLP-1R (Homo sapiens, UniProt P43220); assay: hGLP-1R-mediated cAMP induction assay in CHO cell line; assay type: cell-based; details: Table 3; for EC50: CHO hGLP1R cells; for GLP-1 Receptor Relative Potency: against native GLP-1;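 on all read-outs here: CHO cells expressing human GLP-1R, treated 30 min at 37 °C, intracellular cAMP measured by competitive fluorescent immunoassay and converted via a cAMP standard curve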
T1 construct: expressed in transfected cells; host or cells: CHO
T1 sequence (P43220 24-463): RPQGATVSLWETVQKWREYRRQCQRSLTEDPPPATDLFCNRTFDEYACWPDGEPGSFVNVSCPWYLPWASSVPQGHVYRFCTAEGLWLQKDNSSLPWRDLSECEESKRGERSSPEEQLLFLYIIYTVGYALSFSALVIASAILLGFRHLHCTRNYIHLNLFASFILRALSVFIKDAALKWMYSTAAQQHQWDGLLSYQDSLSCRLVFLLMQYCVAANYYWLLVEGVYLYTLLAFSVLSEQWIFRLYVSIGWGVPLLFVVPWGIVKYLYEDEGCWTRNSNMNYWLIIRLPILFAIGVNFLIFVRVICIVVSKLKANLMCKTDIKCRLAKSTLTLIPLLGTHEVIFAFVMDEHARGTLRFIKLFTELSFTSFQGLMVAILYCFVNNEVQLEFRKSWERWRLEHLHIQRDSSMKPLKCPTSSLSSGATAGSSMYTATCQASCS
Text: (§1) The cAMP in the sample or standard competes with horseradish peroxidase (HRP)-labeled cAMP conjugate for binding sites on the anti-cAMP antibodies. In the absence of cAMP, most of the HRP-cAMP conjugate is bound to the antibody. Increasing concentrations of cAMP competitively decrease the amount of bound conjugate, thus decreasing measured HRP activity.
(§2) Assay kit: CatchPoint™ Cyclic-AMP Fluorescent Assay Kit (Molecular Devices, Product # R8088)
Cell lines: CHO hGLP1R, CHO hGIPR
(§3) Cell seeding: CHO hGLP1R or CHO hGIPR cells: 10,000 cells/well/100 uL at 37° C. 5% CO2 overnight.
(§4) Gently aspirate off media and wash the cells with KRBG Buffer, 100 uL/well.
(§5) Incubate the plate for 10 min at room temperature. Then add the KRBG buffer with 3× final concentration of the tested samples (5-foled series diluted from 5,000 nM), 50 uL/well. Incubate the plate at 37° C. 5% CO2 for 30 min.
(§6) Add 50 uL of Lysis buffer to each well and put the plate on a shaker for 10 min.
(§7) Place 40 uL of samples and analyze in appropriate wells. And test the cAMP concentration in each sample by following the manufacture's instruction.
(§8) Detect the fluorescence signal at Ex: 490 nm and Em: 530 nm. Transfer the FI signal to cAMP concentration by the cAMP standard curve. The Dose-response curve and EC50 were obtained by logistic fitting of Origin 8.

[2] = molecular target: T2, hGIPR (Homo sapiens, UniProt P48546); assay: hGIPR-mediated cAMP induction assay in CHO cell line; assay type: cell-based; details: Table 3; for EC50: CHO hGIPR cells; for GIP Receptor Relative Potency: against native GIP
T2 construct: expressed in transfected cells; host or cells: CHO
T2 sequence (P48546 22-466): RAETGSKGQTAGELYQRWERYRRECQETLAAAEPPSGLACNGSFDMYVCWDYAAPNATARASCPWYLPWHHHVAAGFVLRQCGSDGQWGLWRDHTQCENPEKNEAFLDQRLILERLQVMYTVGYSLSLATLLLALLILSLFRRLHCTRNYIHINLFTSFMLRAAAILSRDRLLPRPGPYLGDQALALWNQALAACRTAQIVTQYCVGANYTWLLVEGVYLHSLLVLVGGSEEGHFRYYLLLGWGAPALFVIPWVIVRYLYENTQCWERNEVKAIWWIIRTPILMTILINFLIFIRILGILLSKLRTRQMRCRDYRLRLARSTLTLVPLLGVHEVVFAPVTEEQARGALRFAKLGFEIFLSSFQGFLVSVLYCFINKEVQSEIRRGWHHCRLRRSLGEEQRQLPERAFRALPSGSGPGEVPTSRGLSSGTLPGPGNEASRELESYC
Text: as §1, §2
Cell lines: CHO hGLP1R, CHO hGIPR
as §3, §4, §5, §6, §7, §8

Structure (SMILES)	EC50 [1]	GLP-1 Receptor Relative Potency [1]	EC50 [2]	GIP Receptor Relative Potency [2]
CCCCCCCCCCCCCCCC(=O)N[C@@H](CCC(=O)N[C@@H](CCC(=O)NCCCC[C@H](NC(=O)[C@H](CO)NC(=O)[C@@H]1CCCN1C(=O)[C@@H]1CCCN1C(=O)[C@@H]1CCCN1C(=O)[C@H](C)NC(=O)CNC(=O)[C@H](CO)NC(=O)[C@H](CO)NC(=O)[C@@H]1CCCN1C(=O)CNC(=O)CNC(=O)[C@H](CCCCN)NC(=O)[C@@H](NC(=O)[C@H](CC(C)C)NC(=O)[C@H](Cc1c[nH]c2ccccc12)NC(=O)[C@H](C)NC(=O)[C@@H](NC(=O)[C@H](Cc1ccccc1)NC(=O)[C@H](CCC(=O)O)NC(=O)[C@H](CCCNC(=N)N)NC(=O)[C@@H](NC(=O)[C@H](C)NC(=O)[C@H](CCC(=O)O)NC(=O)[C@H](CCCCN)NC(=O)[C@H](CCC(=O)O)NC(=O)[C@H](CCSC)NC(=O)[C@H](Cc1ccc(O)cc1)NC(=O)[C@@H](NC(=O)[C@H](CO)NC(=O)[C@H](Cc1ccc(O)cc1)NC(=O)[C@H](CC(=O)O)NC(=O)[C@H](CO)NC(=O)[C@@H](NC(=O)[C@H](Cc1ccccc1)NC(=O)[C@@H](NC(=O)CNC(=O)[C@H](CCC(=O)O)NC(=O)C(C)(C)NC(=O)[C@@H](N)Cc1ccc(O)cc1)[C@@H](C)O)[C@@H](C)O)[C@@H](C)CC)C(C)C)[C@@H](C)CC)C(C)C)C(N)=O)C(=O)O)C(=O)O [Compound 091]	0.116 nM	921.5	0.041 nM	287.8
CCCCCCCCCCCCCCCC(=O)N[C@@H](CCC(=O)NCCCC[C@H](NC(=O)[C@@H](NC(=O)[C@H](C)NC(=O)[C@H](CCC(=O)O)NC(=O)[C@H](CCCCN)NC(=O)[C@H](CCC(=O)O)NC(=O)[C@H](CCSC)NC(=O)[C@H](Cc1ccc(O)cc1)NC(=O)[C@@H](NC(=O)[C@H](CO)NC(=O)[C@H](Cc1ccc(O)cc1)NC(=O)[C@H](CC(=O)O)NC(=O)[C@H](CO)NC(=O)[C@@H](NC(=O)[C@H](Cc1ccccc1)NC(=O)[C@@H](NC(=O)CNC(=O)[C@H](CCC(=O)O)NC(=O)C(C)(C)NC(=O)[C@@H](N)Cc1ccc(O)cc1)[C@@H](C)O)[C@@H](C)O)[C@@H](C)CC)C(C)C)C(=O)N[C@@H](CCC(=O)O)C(=O)N[C@@H](Cc1ccccc1)C(=O)N[C@H](C(=O)N[C@@H](C)C(=O)N[C@@H](Cc1c[nH]c2ccccc12)C(=O)N[C@@H](CC(C)C)C(=O)N[C@H](C(=O)N[C@@H](CCCCN)C(=O)NCC(=O)NCC(=O)N1CCC[C@H]1C(=O)N[C@@H](CO)C(=O)N[C@@H](CO)C(=O)NCC(=O)N[C@@H](C)C(=O)N1CCC[C@H]1C(=O)N1CCC[C@H]1C(=O)N1CCC[C@H]1C(=O)N[C@@H](CO)C(N)=O)C(C)C)[C@@H](C)CC)C(=O)O [Compound 092] (H-Y[Aib]EGTFTSDYSIYMEKEAVK([γGlu-Palmitoyl])EFIAWLVKGGPSSGAPPPS-NH2)	0.39 nM	256.4	0.15 nM	26.6
CCCCCCCCCCCCCCCC(=O)N[C@@H](CCC(=O)N[C@@H](CCC(=O)NCCCC[C@H](NC(=O)[C@@H](NC(=O)[C@H](C)NC(=O)[C@H](CCC(=O)O)NC(=O)[C@H](CCCCN)NC(=O)[C@H](CCC(=O)O)NC(=O)[C@H](CCSC)NC(=O)[C@H](Cc1ccc(O)cc1)NC(=O)[C@@H](NC(=O)[C@H](CO)NC(=O)[C@H](Cc1ccc(O)cc1)NC(=O)[C@H](CC(=O)O)NC(=O)[C@H](CO)NC(=O)[C@@H](NC(=O)[C@H](Cc1ccccc1)NC(=O)[C@@H](NC(=O)CNC(=O)[C@H](CCC(=O)O)NC(=O)C(C)(C)NC(=O)[C@@H](N)Cc1ccc(O)cc1)[C@@H](C)O)[C@@H](C)O)[C@@H](C)CC)C(C)C)C(=O)N[C@@H](CCC(=O)O)C(=O)N[C@@H](Cc1ccccc1)C(=O)N[C@H](C(=O)N[C@@H](C)C(=O)N[C@@H](Cc1c[nH]c2ccccc12)C(=O)N[C@@H](CC(C)C)C(=O)N[C@H](C(=O)N[C@@H](CCCCN)C(=O)NCC(=O)NCC(=O)N1CCC[C@H]1C(=O)N[C@@H](CO)C(=O)N[C@@H](CO)C(=O)NCC(=O)N[C@@H](C)C(=O)N1CCC[C@H]1C(=O)N1CCC[C@H]1C(=O)N1CCC[C@H]1C(=O)N[C@@H](CO)C(N)=O)C(C)C)[C@@H](C)CC)C(=O)O)C(=O)O [Compound 093] (H-Y[Aib]EGTFTSDYSIYMEKEAVK([γGlu-γGlu-Palmitoyl])EFIAWLVKGGPSSGAPPPS-NH2)	0.43 nM	232.5	0.03 nM	133.3
CCCCCCCCCCCCCCCC(=O)N[C@@H](CCC(=O)NCCCC[C@H](NC(=O)[C@@H](NC(=O)[C@H](CC(C)C)NC(=O)[C@H](Cc1c[nH]c2ccccc12)NC(=O)[C@H](C)NC(=O)[C@@H](NC(=O)[C@H](Cc1ccccc1)NC(=O)[C@H](CCC(=O)O)NC(=O)[C@H](CCCNC(=N)N)NC(=O)[C@@H](NC(=O)[C@H](C)NC(=O)[C@H](CCC(=O)O)NC(=O)[C@H](CCCCN)NC(=O)[C@H](CCC(=O)O)NC(=O)[C@H](CCSC)NC(=O)[C@H](Cc1ccc(O)cc1)NC(=O)[C@@H](NC(=O)[C@H](CO)NC(=O)[C@H](Cc1ccc(O)cc1)NC(=O)[C@H](CC(=O)O)NC(=O)[C@H](CO)NC(=O)[C@@H](NC(=O)[C@H](Cc1ccccc1)NC(=O)[C@@H](NC(=O)CNC(=O)[C@H](CCC(=O)O)NC(=O)C(C)(C)NC(=O)[C@@H](N)Cc1ccc(O)cc1)[C@@H](C)O)[C@@H](C)O)[C@@H](C)CC)C(C)C)[C@@H](C)CC)C(C)C)C(=O)NCC(=O)NCC(=O)N1CCC[C@H]1C(=O)N[C@@H](CO)C(=O)N[C@@H](CO)C(=O)NCC(=O)N[C@@H](C)C(=O)N1CCC[C@H]1C(=O)N1CCC[C@H]1C(=O)N1CCC[C@H]1C(=O)N[C@@H](CO)C(N)=O)C(=O)O [Compound 094]	0.67 nM	149.2	0.85 nM	4.7
CCCCCCCCCCCCCCCC(=O)NCCCC[C@H](NC(=O)[C@H](CO)NC(=O)[C@@H]1CCCN1C(=O)[C@@H]1CCCN1C(=O)[C@@H]1CCCN1C(=O)[C@H](C)NC(=O)CNC(=O)[C@H](CO)NC(=O)[C@H](CO)NC(=O)[C@@H]1CCCN1C(=O)CNC(=O)CNC(=O)[C@H](CCCCN)NC(=O)[C@@H](NC(=O)[C@H](CC(C)C)NC(=O)[C@H](Cc1c[nH]c2ccccc12)NC(=O)[C@H](CS)NC(=O)[C@@H](NC(=O)[C@H](Cc1ccccc1)NC(=O)[C@H](CCC(=O)O)NC(=O)[C@H](CCCNC(=N)N)NC(=O)[C@@H](NC(=O)[C@H](C)NC(=O)[C@H](CCC(=O)O)NC(=O)[C@H](CCCCN)NC(=O)[C@H](CCC(=O)O)NC(=O)[C@H](CCSC)NC(=O)[C@H](Cc1ccc(O)cc1)NC(=O)[C@@H](NC(=O)[C@H](CO)NC(=O)[C@H](Cc1ccc(O)cc1)NC(=O)[C@H](CC(=O)O)NC(=O)[C@H](CO)NC(=O)[C@@H](NC(=O)[C@H](Cc1ccccc1)NC(=O)[C@@H](NC(=O)CNC(=O)[C@H](CCC(=O)O)NC(=O)C(C)(C)NC(=O)[C@@H](N)Cc1ccc(O)cc1)[C@@H](C)O)[C@@H](C)O)[C@@H](C)CC)C(C)C)[C@@H](C)CC)C(C)C)C(N)=O [Compound 096] (H-Y[Aib]EGTFTSDYSIYMEKEAVREFICWLVKGGPSSGAPPPSK(Palmitoyl)-NH2)	0.253 nM	404.7	0.1 nM	42
CCCCCCCCCCCCCCCC(=O)NCCCC[C@H](NC(=O)[C@H](CO)NC(=O)[C@@H]1CCCN1C(=O)[C@@H]1CCCN1C(=O)[C@@H]1CCCN1C(=O)[C@H](C)NC(=O)CNC(=O)[C@H](CO)NC(=O)[C@H](CO)NC(=O)[C@@H]1CCCN1C(=O)CNC(=O)CNC(=O)[C@H](CCCCN)NC(=O)[C@@H](NC(=O)[C@H](CC(C)C)NC(=O)[C@H](Cc1c[nH]c2ccccc12)NC(=O)[C@@H]1CCC(=O)NCCCC[C@H](NC(=O)[C@@H](NC(=O)[C@H](C)NC(=O)[C@H](CCC(=O)O)NC(=O)[C@H](CCCCN)NC(=O)[C@H](CCC(=O)O)NC(=O)[C@H](CCSC)NC(=O)[C@H](Cc2ccc(O)cc2)NC(=O)[C@@H](NC(=O)[C@H](CO)NC(=O)[C@H](Cc2ccc(O)cc2)NC(=O)[C@H](CC(=O)O)NC(=O)[C@H](CO)NC(=O)[C@@H](NC(=O)[C@H](Cc2ccccc2)NC(=O)[C@@H](NC(=O)CNC(=O)[C@H](CCC(=O)O)NC(=O)C(C)(C)NC(=O)[C@@H](N)Cc2ccc(O)cc2)[C@@H](C)O)[C@@H](C)O)[C@@H](C)CC)C(C)C)C(=O)N[C@@H](CCC(=O)O)C(=O)N[C@@H](Cc2ccccc2)C(=O)N[C@@H]([C@@H](C)CC)C(=O)N1)C(C)C)C(N)=O [Compound 101] (H-Y[Aib]EGTFTSDYSIYMEKEAVKEFIEWLVKGGPSSGAPPPSK(Palmitoyl)-NH2; lactam 20-24)	0.056 nM	628.6	0.021 nM	328.6
